Publication PMC6576746, “Rational discovery of dual-indication multi-target PDE/Kinase inhibitor for precision anti-cancer therapy using structural systems pharmacology” (PLoS Computational Biology, 2019)

How the values were obtained:
Assay in all cases: cells
Design in all cases: species or system panel of human cancer cell lines; Eurofins OncoPanel proliferation; nuclei count by high-content fluorescence imaging, 10-point dose response
HCT-116 = settings: Homo sapiens, HCT-116, 72 h, cell count, 3 days
In short: (§1)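 Cells in RPMI 1640/10% FBS or special medium received compound the day after seeding, with a time-zero plate; 3-day incubation at 37°C, 5% CO2. Nuclei imaged by fluorescence microscopy; 10 half-log doses from 100 μM, 0.1% DMSO. EC50, IC50, GI50 and activity area (0–10) from curve fits.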

C32TG = settings: C32TG, 72 h, cell count, 3 days
In short: as §1

ST486 = settings: Homo sapiens, ST486, 72 h, cell count, 3 days
In short: as §1

J-RT3-T3-5 = settings: Homo sapiens, J-RT3-T3-5, 72 h, cell count, 3 days
In short: as §1

MEG01 = settings: Homo sapiens, MEG-01, 72 h, cell count, 3 days
In short: as §1

SNB-19 = settings: Homo sapiens, SNB-19, 72 h, cell count, 3 days
In short: as §1

MCF7 = settings: Homo sapiens, MCF7, 72 h, cell count, 3 days
In short: as §1

CML-T1 = settings: CML-T1, 72 h, cell count, 3 days
In short: as §1

MHH-PREB-1 = settings: Homo sapiens, MHH-PREB-1, 72 h, cell count, 3 days
In short: as §1

SW684 = settings: Homo sapiens, SW684, 72 h, cell count, 3 days
In short: as §1

BeWo = settings: Homo sapiens, BeWo, 72 h, cell count, 3 days
In short: as §1

DMS114 = settings: Homo sapiens, DMS-114, 72 h, cell count, 3 days
In short: as §1

SaOS2 = settings: Homo sapiens, SAOS-2, 72 h, cell count, 3 days
In short: as §1

KLE = settings: Homo sapiens, KLE, 72 h, cell count, 3 days
In short: as §1

[1] = 50% of maximum possible response

C[C@@H]1CC(=O)NN=C1c1ccc(NN=C(C#N)C#N)cc1 [levosimendan]
IC50 (HCT-116; [1]): 8.39 µM
GI50 (HCT-116; corrected for time zero): 8.1 µM
EC50 (HCT-116; curve inflection point): 8.01 µM
IC50 (C32TG; [1]): 36.9 µM
GI50 (C32TG; corrected for time zero): 23.4 µM
EC50 (C32TG; curve inflection point): 36.9 µM
IC50 (ST486; [1]): 8.16 µM
GI50 (ST486; corrected for time zero): 6.04 µM
EC50 (ST486; curve inflection point): 8.16 µM
IC50 (J-RT3-T3-5; [1]): 24.4 µM
GI50 (J-RT3-T3-5; corrected for time zero): 18.4 µM
EC50 (J-RT3-T3-5; curve inflection point): 24.4 µM
IC50 (MEG01; [1]): 83.2 µM
GI50 (MEG01; corrected for time zero): 58.5 µM
EC50 (MEG01; curve inflection point): 83.2 µM
IC50 (SNB-19; [1]): > 100 µM
GI50 (SNB-19; corrected for time zero): > 100 µM
EC50 (SNB-19; curve inflection point): > 100 µM
IC50 (MCF7; [1]): 32.4 µM
GI50 (MCF7; corrected for time zero): 19 µM
EC50 (MCF7; curve inflection point): 16.1 µM
IC50 (CML-T1; [1]): 15.7 µM
GI50 (CML-T1; corrected for time zero): 12.5 µM
EC50 (CML-T1; curve inflection point): 15.7 µM
IC50 (MHH-PREB-1; [1]): 7.64 µM
GI50 (MHH-PREB-1; corrected for time zero): 7.08 µM
EC50 (MHH-PREB-1; curve inflection point): 7.4 µM
IC50 (SW684; [1]): > 100 µM
GI50 (SW684; corrected for time zero): 17.1 µM
EC50 (SW684; curve inflection point): 21.1 µM
IC50 (BeWo; [1]): 37.4 µM
GI50 (BeWo; corrected for time zero): 33.9 µM
EC50 (BeWo; curve inflection point): 37.4 µM
IC50 (DMS114; [1]): 50.7 µM
GI50 (DMS114; corrected for time zero): 18.9 µM
EC50 (DMS114; curve inflection point): 50.7 µM
IC50 (SaOS2; [1]): 54.5 µM
GI50 (SaOS2; corrected for time zero): 35.7 µM
EC50 (SaOS2; curve inflection point): 54.5 µM
IC50 (KLE; [1]): 85.4 µM
GI50 (KLE; corrected for time zero): 20.8 µM
EC50 (KLE; curve inflection point): 29.6 µM
